Test results reported in patent publication US7598010B2, “Triarylamine dimer derivative having amorphous phase” (Orient Chemical Industries, Ltd., priority 2003, dated 2009).
≈ marks a conversion by molar mass, not a printed value. Where two headings read alike, the source gives them in different places.

Tests used:
[1] = Determination of the solubility in organic solvents; format: physicochemical; settings: for Solubility (g/ml) DMF / Solubility (g/ml) THF / Solubility (g/ml) Chloroform / Solubility (g/ml) Dichloromethane / Solubility (g/ml) Xylene / solubility: 5 ml, added until saturation; for Solubility (g/ml) Xylene: solvent xylene; for solubility: organic solvent or mixture, thermodynamic from solid
Method: (Determination of the Solubility)
Respectively, 5 ml of the solvents of THF, DMF, xylene, chloroform and dichloromethane were measured and poured into 20 ml of tubular bottoms with screw caps. […] The solubility (g/ml) to the respective solvent was determined from the weight of the triarylamine dimer derivative added until saturation.

[2] = Differential scanning calorimetry (DSC), glass transition point; format: physicochemical; settings: determined by DSC
Source text: (Differential Scanning Calorimetry (DSC))
The results of the glass transition point (Tg) determined by DSC of the triarylamine dimer derivatives obtained in Examples 1 to 6 are shown in Table 3.

[3] = chloroform, solvent chloroform, read-out: Solubility (g/ml) Chloroform
[4] = dichloromethane, solvent dichloromethane, read-out: Solubility (g/ml) Dichloromethane

Row | SMILES | Solubility (g/ml) DMF ([1]; solvent DMF) | Solubility (g/ml) THF ([1]; solvent THF) | Solubility (g/ml) Chloroform ([1]; solvent chloroform) | Solubility (g/ml) Dichloromethane ([1]; solvent dichloromethane) | Solubility (g/ml) Xylene [1] | Glass Transition Point(Tg) [2] | Solubility in organic solvent (in words) [1] | solubility [1, 3] | Solubility compared with alpha-NPD (times higher) ([1]; organic solvents of Table 2) | solubility [1, 4] | solubility ([1]; DMF, solvent DMF, read-out: Solubility (g/ml) DMF) | solubility ([1]; THF, solvent THF, read-out: Solubility (g/ml) THF)
1 | c1ccc(N(c2ccc(-c3ccc(N(c4ccccc4)c4ccc5ccccc5c4)cc3)cc2)c2ccc3ccccc3c2)cc1 [Comparative Example7, N,N′-diphenyl-N,N′-bis(2-naphthyl)-4,4′-diaminobiphenyl] | 0.028 g/mL (≈ 47.6 mM) | 0.202 g/mL (≈ 343 mM) | 0.368 g/mL (≈ 625 mM) | 0.209 g/mL (≈ 355 mM) | 0.155 g/mL (≈ 263 mM) |  |  |  |  |  |  | 
2 | Cc1ccc(N(c2ccccc2)c2ccc(-c3ccc(N(c4ccccc4)c4ccc(C)cc4)cc3)cc2)cc1 [Example2, N,N′-diphenyl-N,N′-bis(4-tolyl)-4,4′-diaminobiphenyl] | 0.060 g/mL (≈ 116 mM) | 0.732 g/mL (≈ 1420 mM) | 0.892 g/mL (≈ 1730 mM) | 0.696 g/mL (≈ 1350 mM) | 0.334 g/mL (≈ 646 mM) | 75.0 Degrees C. |  |  |  |  |  | 
3 | c1ccc(N(c2ccc(-c3ccc(N(c4ccccc4)c4ccc5ccccc5c4)cc3)cc2)c2ccc3ccccc3c2)cc1 [Example6, N,N′-diphenyl-N,N′-bis(2-naphthyl)-4,4′-diaminobiphenyl] |  | > 0.795 g/mL |  |  |  | 99.4 Degrees C. |  |  |  |  |  | 
4 | c1ccc(N(c2ccc(-c3ccc(N(c4ccccc4)c4ccc5ccccc5c4)cc3)cc2)c2ccc3ccccc3c2)cc1 [Example5, N,N′-diphenyl-N,N′-bis(2-naphthyl)-4,4′-diaminobiphenyl] | 0.301 g/mL (≈ 511 mM) | > 0.795 g/mL |  | 0.471 g/mL (≈ 800 mM) | 0.558 g/mL (≈ 948 mM) | 99.4 Degrees C. | very high solubility | 0.632 g/mL (≈ 1070 mM) | ten to several hundreds times higher |  |  | 
5 | c1ccc(N(c2ccc(-c3ccc(N(c4ccccc4)c4cccc5ccccc45)cc3)cc2)c2cccc3ccccc23)cc1 [Example4, N,N′-diphenyl-N,N′-bis(1-naphthyl)-4,4′-diaminobiphenyl] | 0.007 g/mL (≈ 11.9 mM) | 0.028 g/mL (≈ 47.6 mM) |  |  | 0.009 g/mL (≈ 15.3 mM) | 98.8 Degrees C. |  | 0.043 g/mL (≈ 73 mM) |  | 0.029 g/mL (≈ 49.3 mM) |  | 
6 | Cc1ccc(N(c2ccccc2)c2ccc(-c3ccc(N(c4ccccc4)c4ccc(C)cc4)cc3)cc2)cc1 [Comparative Example2, N,N′-diphenyl-N,N′-bis(4-tolyl)-4,4′-diaminobiphenyl] |  |  |  |  | 0.152 g/mL (≈ 294 mM) |  |  | 0.613 g/mL (≈ 1190 mM) |  | 0.397 g/mL (≈ 768 mM) | 0.036 g/mL (≈ 69.7 mM) | 0.413 g/mL (≈ 799 mM)
7 | Cc1cccc(N(c2ccccc2)c2ccc(-c3ccc(N(c4ccccc4)c4cccc(C)c4)cc3)cc2)c1 [Example1, N,N′-diphenyl-N,N′-bis(3-tolyl)-4,4′-diaminobiphenyl] |  |  |  |  |  | 63.2 Degrees C. |  |  |  |  |  | 
8 | c1ccc(N(c2ccc(-c3ccc(N(c4ccccc4)c4ccc5ccccc5c4)cc3)cc2)c2ccc3ccccc3c2)cc1 [Comparative Example5, N,N′-diphenyl-N,N′-bis(2-naphthyl)-4,4′-diaminobiphenyl] | 0.012 g/mL (≈ 20.4 mM) | 0.235 g/mL (≈ 399 mM) | 0.395 g/mL (≈ 671 mM) | 0.195 g/mL (≈ 331 mM) | 0.103 g/mL (≈ 175 mM) |  |  |  |  |  |  | 
9 | c1ccc(N(c2ccc(-c3ccc(N(c4ccccc4)c4ccc5ccccc5c4)cc3)cc2)c2ccc3ccccc3c2)cc1 [Comparative Example6, N,N′-diphenyl-N,N′-bis(2-naphthyl)-4,4′-diaminobiphenyl] | 0.033 g/mL (≈ 56.1 mM) | 0.270 g/mL (≈ 459 mM) | 0.452 g/mL (≈ 768 mM) | 0.226 g/mL (≈ 384 mM) | 0.162 g/mL (≈ 275 mM) |  |  |  |  |  |  | 
10 | c1ccc(N(c2ccc(-c3ccc(N(c4ccccc4)c4cccc5ccccc45)cc3)cc2)c2cccc3ccccc23)cc1 [Comparative Example4, N,N′-diphenyl-N,N′-bis(1-naphthyl)-4,4′-diaminobiphenyl] | 0.001 g/mL (≈ 1.7 mM) | 0.009 g/mL (≈ 15.3 mM) | 0.024 g/mL (≈ 40.8 mM) | 0.021 g/mL (≈ 35.7 mM) | 0.002 g/mL (≈ 3.4 mM) |  |  |  |  |  |  | 
